Eleven molecules from ChEMBL document CHEMBL1201862, “PubChem BioAssay data set” (2004) can be followed below.

Common to all, as to assay: growth of human tumour cells (NCI), 48 h
The subject of assay [1] is CCRF-CEM.
For assay [2], the system named is CAKI-1.
Assay [3] has as its system HCT-15.
For assay [4], the system named is U-251.
Assay [5] relates to OVCAR-4.
In assay [6] the test system is NCI-H23.
The test system of assay [7] is PC-3.
Assay [8] concerns LOX IMVI.
For assay [9], the system named is IGROV-1.
Assay [10] concerns 786-0.
For assay [11], the system named is SK-MEL-28.
The subject of assay [12] is SK-MEL-5.
The subject of assay [13] is HL-60.
In assay [14] the test system is K562.
The subject of assay [15] is NCI/ADR-RES.
Assay [16] relates to UACC-257.
Assay [17] concerns UO-31.
Assay [18] concerns SF-539.
Assay [19] relates to RPMI-8226.
The subject of assay [20] is SR.

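Grown in 96-well plates, cells were treated for 48 hours with each compound at five concentrations. Insufficient inhibition: endpoint recorded as highest concentration tested. Here, GI50 denotes the concentration required for 50% inhibition of growth.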 Calls of active or inactive are those of the source. Rule as the data show it: active = GI50 up to about 1.1 µM and inactive = higher. A value given as a limit tells only on which side of the number the result lay.

In the case of `Cc1nc2nnc(CCCCCCCCc3nnc4nc(C)[nH]n34)n2[nH]1`, the GI50 is > 100 µM (inactive) in [1]; > 100 µM (inactive) in assay [2]; greater than 100 µM in assay [3]; > 100 µM (inactive) in assay [4]; > 100 µM (inactive) in [5]; > 100 µM (inactive) in assay [6]. For the same molecule, the GI50 was > 100 µM (inactive) in assay [7]; 47.4 µM (inactive) in assay [8]; > 100 µM (inactive) in assay [9]; > 100 µM (inactive) in [10]; > 100 µM (inactive) in [11]; > 100 µM (inactive) in assay [12]. For the same molecule, the GI50 in assay [13], in assay [14], in [15], in [16], in assay [17] and in [18] was > 100 µM (inactive) throughout.

Take `Oc1ccc2ccccc2c1Cc1c(O)ccc2ccccc12`: the GI50 is 19.3 µM (inactive) in assay [1]; 17.1 µM (inactive) in assay [2]; 14.8 µM in assay [3]; 15.4 µM (inactive) in assay [4]; 13.1 µM (inactive) in assay [5]; 16.1 µM (inactive) in assay [6]. Further, the GI50 was 17.5 µM (inactive) in [7]; 15.2 µM (inactive) in [8]; 4.04 µM (inactive) in assay [9]; 21.1 µM (inactive) in assay [10]; 21.6 µM (inactive) in [11]; 16.1 µM (inactive) in [12]. The GI50 in [13] was 17.8 µM (inactive); in [14], 8.83 µM (inactive); in [15], 15.2 µM (inactive); in [16], 19.5 µM (inactive); in assay [19], 16.4 µM (inactive); in assay [17], 15 µM (inactive). In assay [18], the GI50 is 21.4 µM (inactive).

Regarding `Nc1nc2[nH]c(=O)cnc2c(=O)[nH]1` [ISOXANTHOPTERIN], the GI50 in [1] was > 125 µM (inactive); in assay [2] it was > 125 µM (inactive); in assay [3] it was greater than 78.9 µM; in [4], > 125 µM (inactive); in [5], > 125 µM (inactive); in assay [6] it was > 125 µM (inactive). In addition, the GI50 in [8], in assay [9], in assay [11], in [12], in [13] and in assay [14] was > 125 µM (inactive) each time. For the same molecule, the GI50 in assay [15], in assay [16], in assay [19], in assay [17] and in assay [18] was > 125 µM (inactive) throughout.

On to `Cc1ccc(S(=O)(=O)NC(C(=O)O)C(C)C)cc1` (stereo unspecified), for which the GI50 in assay [1] was > 100 µM (inactive); in [2] it was > 100 µM (inactive); in assay [3], greater than 100 µM; in [4], > 100 µM (inactive); in assay [5], > 100 µM (inactive); in [6] it was > 100 µM (inactive). The GI50 in [7], in [8], in assay [9], in assay [10], in assay [11] and in assay [12] was > 100 µM (inactive) in each case. The GI50 in assay [14], in assay [15], in assay [20], in assay [16] and in assay [17] was > 100 µM (inactive) in each case.

Take `CCC1CN(C(=O)c2ccccc2)C(Cc2c[nH]c3ccccc23)C(=O)C1CC(=O)OC` (stereo unspecified): the GI50 in assay [1] is 51.4 µM (inactive); in [2] it was 54.7 µM (inactive); in assay [3], greater than 100 µM; in [4] it was 41.6 µM (inactive); in [5], > 100 µM (inactive); in assay [6], 74.6 µM (inactive). In addition, the GI50 in assay [7] is 46 µM (inactive); in assay [8], 90.6 µM (inactive); in assay [9] it was 72.4 µM (inactive); in [11] it was > 100 µM (inactive); in [12] it was 72.8 µM (inactive); in [13], 31.6 µM (inactive). Further, the GI50 was 47.8 µM (inactive) in [14]; 86.7 µM (inactive) in assay [15]; 36.6 µM (inactive) in assay [20]; > 100 µM (inactive) in assay [16]; 35.2 µM (inactive) in [17]; > 100 µM (inactive) in assay [18].

`C[O+]=C1C=CC(=C2SC(c3ccccc3)(c3ccccc3)c3ccccc32)C=C1.[O-][Cl+3]([O-])([O-])[O-]`: the GI50 in assay [1] is 26.4 µM (inactive); in [2] it was 30.9 µM (inactive); in assay [3], 10.9 µM; in [4] it was 22.6 µM (inactive); in assay [5], 14.6 µM (inactive); in [6], 21.1 µM (inactive). In addition, the GI50 in assay [7] was 20.9 µM (inactive); in assay [8], 18 µM (inactive); in assay [9] it was 33 µM (inactive); in assay [10], 17.2 µM (inactive); in [11], 21.1 µM (inactive); in [12] it was 16.6 µM (inactive). Also, the GI50 is 17 µM (inactive) in [13]; 26.7 µM (inactive) in [14]; 30.1 µM (inactive) in [15]; 16.6 µM (inactive) in [16]; 17.5 µM (inactive) in assay [19]; 10 µM (inactive) in assay [17]. In addition, the GI50 in assay [18] is 18.7 µM (inactive).

For the molecule `Cc1cc(O)cc(O)c1/N=N/c1ccc([N+](=O)[O-])cc1`, the GI50 was 5.69 µM (inactive) in assay [1]; 14.2 µM (inactive) in assay [2]; 6.87 µM in assay [3]; 16.7 µM (inactive) in assay [4]; 9.64 µM (inactive) in assay [5]; 17.7 µM (inactive) in assay [6]. The GI50 in assay [7] is 16 µM (inactive); in assay [8] it was 23.7 µM (inactive); in assay [9], 16.1 µM (inactive); in assay [11] it was 16.6 µM (inactive); in assay [12], 12.6 µM (inactive); in [13] it was 5.16 µM (inactive). Besides, the GI50 in assay [14] is 3.27 µM (inactive); in assay [15] it was 10.6 µM (inactive); in assay [16] it was 25.1 µM (inactive); in [19], 5.22 µM (inactive); in assay [17], 25 µM (inactive); in [18] it was 29 µM (inactive).

Regarding `[N-]=[N+]=NC[C@H]1OCO[C@H](CN=[N+]=[N-])[C@H]2OCCOCCOc3ccccc3OCCOCCO[C@@H]21`, the GI50 was > 100 µM (inactive) in [1]; > 100 µM (inactive) in assay [2]; greater than 100 µM in assay [3]; > 100 µM (inactive) in assay [4]; > 100 µM (inactive) in assay [5]; > 100 µM (inactive) in [6]. Besides, the GI50 in [7], in assay [8], in assay [9], in assay [10], in assay [11] and in [12] was > 100 µM (inactive) throughout. Besides, the GI50 in [13] was > 100 µM (inactive); in assay [14], > 100 µM (inactive); in assay [15], > 100 µM (inactive); in assay [16], > 100 µM (inactive); in [19], > 100 µM (inactive); in assay [17], 10.1 µM (inactive). Also, the GI50 in assay [18] is > 100 µM (inactive).

As to `O=NN1C(c2ccccc2)C2CCCC(C2=O)C1c1ccccc1` (stereo unspecified), the GI50 is 28.3 µM (inactive) in assay [1]; 41.4 µM (inactive) in assay [2]; 29.3 µM in assay [3]; 29.3 µM (inactive) in assay [4]; 23.9 µM (inactive) in [5]; 19.7 µM (inactive) in assay [6]. For the same molecule, the GI50 in [8] is 22.9 µM (inactive); in [9] it was 40 µM (inactive); in [11], 21.7 µM (inactive); in assay [12], 18.7 µM (inactive); in assay [13], 19.3 µM (inactive); in [14], 21.1 µM (inactive). For the same molecule, the GI50 in assay [15] is 32.7 µM (inactive); in [16], 24 µM (inactive); in [19], 22.3 µM (inactive); in assay [17] it was 22.9 µM (inactive); in assay [18], 44.6 µM (inactive).

`Cn1c2ccccc2n2c(=O)c(-c3ccc(O)cc3)nnc12`: the GI50 in assay [1] was > 100 µM (inactive); in assay [2], 27.7 µM (inactive); in [3], greater than 100 µM; in [4], 28.2 µM (inactive); in assay [5], > 100 µM (inactive); in assay [6] it was > 100 µM (inactive). Moreover, the GI50 is > 100 µM (inactive) in [7]; 69.8 µM (inactive) in assay [8]; > 100 µM (inactive) in assay [9]; 40.2 µM (inactive) in assay [10]; > 100 µM (inactive) in assay [11]; > 100 µM (inactive) in assay [12]. Moreover, the GI50 in assay [13] is > 100 µM (inactive); in [15], > 100 µM (inactive); in assay [20], > 100 µM (inactive); in assay [16], > 100 µM (inactive); in assay [17] it was > 100 µM (inactive); in assay [18], 35 µM (inactive).

As to `NNC(=O)c1c(SCc2ccccc2)nc2c3ccccc3ccn12`, the GI50 was 2.92 µM (inactive) in [1]; 15 µM (inactive) in assay [2]; 5.66 µM in assay [3]; 17.7 µM (inactive) in [4]; 14.5 µM (inactive) in [5]; 21.2 µM (inactive) in assay [6]. The GI50 in assay [7] was 17.1 µM (inactive); in assay [9], 14.4 µM (inactive); in assay [11] it was 18.1 µM (inactive); in assay [12], 6.32 µM (inactive); in assay [13], 9.08 µM (inactive); in assay [14], 14.7 µM (inactive). Besides, the GI50 is 26.5 µM (inactive) in assay [15], 37.2 µM (inactive) in assay [16], 10 µM (inactive) in assay [17] and 15.9 µM (inactive) in assay [18].
